Test results from PubChem BioAssay (NCI).
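Step 1: Grow cells in 96-well plates. Step 2: Expose to compound for 48 hours at 5 concentrations. Step 3: Interpolate endpoints linearly; if unreached, use highest concentration. TGI: concentration producing complete growth inhibition.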

Experiments:
Assay in all cases: inhibition of tumour cell growth, NCI panel, 48 h
SK-MEL-28 melanoma = system: SK-MEL-28 melanoma
UACC-257 melanoma = system: UACC-257 melanoma
SNB-19 CNS = system: SNB-19 CNS
U251 CNS = system: U251 CNS
COLO 205 colon = system: COLO 205 colon
PC-3 prostate = system: PC-3 prostate
SF-539 CNS = system: SF-539 CNS
SK-MEL-2 melanoma = system: SK-MEL-2 melanoma
A498 renal = system: A498 renal
RPMI-8226 leukemia = system: RPMI-8226 leukemia
HOP-62 NSCLC = system: HOP-62 NSCLC
CCRF-CEM leukemia = system: CCRF-CEM leukemia
MCF7 breast = system: MCF7 breast
HS 578T breast = system: HS 578T breast
CAKI-1 renal = system: CAKI-1 renal
RXF 393 renal = system: RXF 393 renal
786-0 renal = system: 786-0 renal
ACHN renal = system: ACHN renal
LOX IMVI melanoma = system: LOX IMVI melanoma
NCI-H226 lung = system: NCI-H226 lung
OVCAR-5 ovarian = system: OVCAR-5 ovarian
UO-31 renal = system: UO-31 renal
MDA-N = system: MDA-N
K-562 leukemia = system: K-562 leukemia
MALME-3M melanoma = system: MALME-3M melanoma
SF-295 CNS = system: SF-295 CNS
MDA-MB-435 = system: MDA-MB-435
SF-268 CNS = system: SF-268 CNS
SR leukemia = system: SR leukemia
HCT-116 colon = system: HCT-116 colon
SNB-75 CNS = system: SNB-75 CNS
HT29 colon = system: HT29 colon
KM12 colon = system: KM12 colon
HCT-15 colon = system: HCT-15 colon
M14 melanoma = system: M14 melanoma
A549 NSCLC = system: A549 NSCLC
T-47D breast = system: T-47D breast
SN12C renal = system: SN12C renal
HCC-2998 colon = system: HCC-2998 colon
NCI-H522 lung = system: NCI-H522 lung
SW-620 colon = system: SW-620 colon
MDA-MB-231 breast = system: MDA-MB-231 breast
NCI-H23 lung = system: NCI-H23 lung
UACC-62 melanoma = system: UACC-62 melanoma
NCI-H460 lung = system: NCI-H460 lung
EKVX NSCLC = system: EKVX NSCLC
MOLT-4 leukemia = system: MOLT-4 leukemia
NCI/ADR-RES ovarian = system: NCI/ADR-RES ovarian
OVCAR-3 ovarian = system: OVCAR-3 ovarian
OVCAR-4 ovarian = system: OVCAR-4 ovarian
SK-MEL-5 melanoma = system: SK-MEL-5 melanoma
IGROV1 ovarian = system: IGROV1 ovarian
OVCAR-8 ovarian = system: OVCAR-8 ovarian
DU-145 prostate = system: DU-145 prostate
SK-OV-3 ovarian = system: SK-OV-3 ovarian
HL-60(TB) leukemia = system: HL-60(TB) leukemia

Question: With `C=CCNC(=S)NC=C(C(N)=O)C(N)=O` as the compound, how does the TGI (SK-MEL-28 melanoma) read?
Answer: The TGI was > 100 µM.

Question: And the TGI (UACC-257 melanoma)?
Answer: Its TGI is > 100 µM.

Question: And the TGI (SNB-19 CNS)?
Answer: Its TGI is > 100 µM.

Question: And the TGI (U251 CNS)?
Answer: Its TGI is > 100 µM.

Question: And the TGI (COLO 205 colon)?
Answer: The TGI was > 100 µM.

Question: And the TGI (PC-3 prostate)?
Answer: The TGI was > 100 µM.

Question: What about the TGI (SF-539 CNS) of the same compound?
Answer: Its TGI is > 100 µM.

Question: And the TGI (SK-MEL-2 melanoma)?
Answer: The TGI was > 100 µM.

Question: And the TGI (A498 renal)?
Answer: Its TGI is 89.2 µM.

Question: What about the TGI (RPMI-8226 leukemia) of the same compound?
Answer: Its TGI is > 100 µM.

Question: And the TGI (HOP-62 NSCLC)?
Answer: Its TGI is > 100 µM.

Question: And the TGI (CCRF-CEM leukemia)?
Answer: The TGI was > 100 µM.

Question: And the TGI (MCF7 breast)?
Answer: Its TGI is > 100 µM.

Question: And the TGI (HS 578T breast)?
Answer: The TGI was > 100 µM.

Question: What about the TGI (CAKI-1 renal) of the same compound?
Answer: Its TGI is > 100 µM.

Question: What about the TGI (RXF 393 renal) of the same compound?
Answer: Its TGI is > 100 µM.

Question: And the TGI (786-0 renal)?
Answer: The TGI was > 100 µM.

Question: And the TGI (ACHN renal)?
Answer: The TGI was > 100 µM.

Question: What about the TGI (LOX IMVI melanoma) of the same compound?
Answer: Its TGI is > 100 µM.

Question: What about the TGI (NCI-H226 lung) of the same compound?
Answer: The TGI was > 100 µM.

Question: What about the TGI (OVCAR-5 ovarian) of the same compound?
Answer: The TGI was > 100 µM.

Question: What about the TGI (UO-31 renal) of the same compound?
Answer: Its TGI is > 100 µM.

Question: What about the TGI (MDA-N) of the same compound?
Answer: Its TGI is > 100 µM.

Question: And the TGI (K-562 leukemia)?
Answer: The TGI was > 100 µM.

Question: What about the TGI (MALME-3M melanoma) of the same compound?
Answer: Its TGI is > 100 µM.

Question: What about the TGI (SF-295 CNS) of the same compound?
Answer: The TGI was > 100 µM.

Question: What about the TGI (MDA-MB-435) of the same compound?
Answer: The TGI was > 100 µM.

Question: What about the TGI (SF-268 CNS) of the same compound?
Answer: The TGI was > 100 µM.

Question: And the TGI (SR leukemia)?
Answer: The TGI was > 100 µM.

Question: What about the TGI (HCT-116 colon) of the same compound?
Answer: Its TGI is > 100 µM.

Question: And the TGI (SNB-75 CNS)?
Answer: The TGI was > 100 µM.

Question: And the TGI (HT29 colon)?
Answer: The TGI was > 100 µM.

Question: What about the TGI (KM12 colon) of the same compound?
Answer: Its TGI is > 100 µM.

Question: And the TGI (HCT-15 colon)?
Answer: Its TGI is > 100 µM.

Question: What about the TGI (M14 melanoma) of the same compound?
Answer: Its TGI is > 100 µM.

Question: And the TGI (A549 NSCLC)?
Answer: The TGI was > 100 µM.

Question: And the TGI (T-47D breast)?
Answer: The TGI was > 100 µM.

Question: And the TGI (SN12C renal)?
Answer: Its TGI is > 100 µM.

Question: And the TGI (HCC-2998 colon)?
Answer: The TGI was > 100 µM.

Question: What about the TGI (NCI-H522 lung) of the same compound?
Answer: Its TGI is > 100 µM.

Question: And the TGI (SW-620 colon)?
Answer: The TGI was > 100 µM.

Question: And the TGI (MDA-MB-231 breast)?
Answer: The TGI was > 100 µM.

Question: And the TGI (NCI-H23 lung)?
Answer: The TGI was > 100 µM.

Question: And the TGI (UACC-62 melanoma)?
Answer: The TGI was > 100 µM.

Question: What about the TGI (NCI-H460 lung) of the same compound?
Answer: The TGI was > 100 µM.

Question: And the TGI (EKVX NSCLC)?
Answer: The TGI was > 100 µM.

Question: And the TGI (MOLT-4 leukemia)?
Answer: The TGI was > 100 µM.

Question: What about the TGI (NCI/ADR-RES ovarian) of the same compound?
Answer: The TGI was > 100 µM.

Question: What about the TGI (OVCAR-3 ovarian) of the same compound?
Answer: The TGI was > 100 µM.

Question: What about the TGI (OVCAR-4 ovarian) of the same compound?
Answer: Its TGI is > 100 µM.

Question: And the TGI (SK-MEL-5 melanoma)?
Answer: The TGI was > 100 µM.

Question: And the TGI (IGROV1 ovarian)?
Answer: Its TGI is > 100 µM.

Question: What about the TGI (OVCAR-8 ovarian) of the same compound?
Answer: The TGI was > 100 µM.

Question: What about the TGI (DU-145 prostate) of the same compound?
Answer: Its TGI is > 100 µM.

Question: And the TGI (SK-OV-3 ovarian)?
Answer: The TGI was > 100 µM.

Question: What about the TGI (HL-60(TB) leukemia) of the same compound?
Answer: The TGI was > 100 µM.
